Counter-ions that a name gives are not always drawn.

The test concerns calpain. Briefly: inhibition of calpain in vitro, synthetic fluorogenic substrates (Sasaki et al.). As to conditions: percent decrease in rate of substrate hydrolysis. It is filed as biochemical. As for the experimental part: The assays were performed using synthetic fluorogenic substrates. Inhibition of enzyme activity was calculated on the percent decease in the rate of substrate hydrolysis in the presence of inhibitor relative to the rate in its absence. IC50 s(nM) were calculated.
For orientation: IC50 means the concentration needed to halve the response being measured. The low end stands for higher potency, the high end for lower potency. In turn, `O=C[C@H](Cc1ccccc1)NC(=O)c1cc(-c2ccccc2-c2ccccc2)nc2ccccc12` [Example 6, (S)-2-[1,1'-Biphenyl]-2-yl-N-(1-formyl-2-phenylethyl)-4-quinolinecarboxamide] yielded an IC50 of 19 nM.
The result for `O=C[C@H](Cc1ccccc1)NC(=O)c1cc(-c2ccc(-c3ccccc3)cc2)nc2ccccc12` [Example 3, (S)-2-[1.1'-Biphenyl]-4-yl-N-(1-formyl-2-phenylethyl)-4-quinolinecarboxamide] reads 20 nM; that for `CCCCNC(=O)C(=O)[C@H](Cc1ccccc1)NC(=O)c1cc(C#Cc2ccccc2)nc2ccccc12` [Example 13, N-[3-(n-butylamino)-2,3-dioxo-1-(phenylmethyl)]-2-(phenylethynyl)-4-quinolinecarboxamide], 77 nM.
Molecule `O=C[C@H](Cc1ccccc1)NC(=O)c1cc(-c2ccc(Oc3ccccc3)cc2)nc2ccccc12` [Example 5, (S)-N-(1-Formyl-2-phenylethyl)-2-(4-phenoxyphenyl)-4-quinolinecarboxamide] displayed an IC50 of 32 nM.
The result for `O=C[C@H](CCCCNS(=O)(=O)c1ccccc1)NC(=O)c1cc(-c2ccccc2)nc2ccccc12` [Example 10, (S)-N-[1-Formyl-5-[(phenylsulfonyl)amino]pentyl]-2-phenyl-4-quinolinecarboxamide] reads 42 nM; that for `O=C[C@H](Cc1ccccc1)NC(=O)c1cc(-c2ccc(Cl)cc2)nc2ccccc12` [Example 2, (S)-2-(4-Chlorophenyl)-N-(1-formyl-2-phenylethyl)-4-quinolinecarboxamide], 66 nM; that for `O=C[C@H](CCCCNC(=O)OCc1ccncc1)NC(=O)c1cc(-c2ccccc2)nc2ccccc12` [Example 11, (S)-N-(1-Formyl-5-[(4-pyridylmethoxy)carbonylamino]pentyl]-2-phenyl-4-quinolinecarboxamide dihydrochloride salt], 160 nM.
To `O=C[C@H](Cc1ccccc1)NC(=O)c1cc(C23CC4CC(CC(C4)C2)C3)nc2ccccc12` [Example 4, (S)-2-(1-Adamantyl)-N-(1-formyl-2-phenylethyl)-4-quinolinecarboxamide] belongs 123 nM; to `O=C[C@H](Cc1ccccc1)NC(=O)c1cc(N2CCN(c3ccccc3)CC2)nc2ccccc12` [Example 8, (S)-N-(1-Formyl-2-phenylethyl)-2-(4-phenyl-1-piperazinyl)-4-quinolinecarboxamide], 38 nM.
The result for `O=C[C@H](Cc1ccccc1)NC(=O)c1cc(C#Cc2ccccc2)nc2ccccc12` [Example 12, (S)-N-(1-formyl-2-phenylethyl)-2-(phenylethynyl)-4-quinolinecarboxamide] reads 12 nM.
For `O=C[C@H](Cc1ccccc1)NC(=O)c1cc(-c2ccccc2)nc2ccccc12` [Example 1, (S)-N-(1-formyl-2-phenylethyl)-2-phenyl-4-quinolinecarboxamide], the IC50 is 65 nM.
`O=C[C@H](Cc1ccccc1)NC(=O)c1cc(-c2ccc(-c3cccnc3)cc2)nc2ccccc12` [Example 9, (S)-N-(1-Formyl-2-phenylethyl)-2-[4-(3-pyridinyl)phenyl]-4-quinolinecarboxamide]: the IC50 stood at 46 nM.
